Experimental data from publication PMC10590383, “Repurposing conformational changes in ANL superfamily enzymes to rapidly generate biosensors for organic and amino acids” (Nature Communications, 2023).

Test: Dose–response curve of purified […]s with histidine
Type: biochemical
Parameters: key to Dose-response, AVE of Repeat 1-3 (Fig. 3 k): normalized ΔF/F0 (fluorescence change over baseline)
Description: Fig. 3 Dose–response curves and fluorescence spectrums of […]s. a, c, e, g, i, k Dose–response curve of purified […]s with increasing concentrations of ligand in 100 mM Tris-HCl buffer (pH=7.5). The normalized ΔF/F0 value increased after ligand binding. All data shown are mean ± S.D. (n = 3 biologically independent samples). b, d, f, h, j, l The fluorescence spectra of […]s changed as the ligand concentration increased. All data shown are mean ± S.D. (n = 3 biologically independent samples). Source data are provided as a Source data file.
The study conducted dose–response curve, substrate specificity, and fluorescent spectrum analyses in 100-mM Tris buffer (pH = 7.5), while pH stability experiments were performed in 100-mM Tris buffer at three different pH values (6.5, 7.5, and 8.5) at room temperature. […] protein at a concentration of 0.75 μM, various small molecule concentrations, 1 mM ATP, and 2.5 mM MgCl2 were used in the experiments. Fluorescent signals were detected using a Microplate Reader (Synergy H4, Bio Tek) at an excitation/emission wavelength of 460 nm/510 nm or 480 nm/510 nm. The dose-response curve was determined immediately after the addition of the analyte. The total duration of the measurement was 15 min, with readings taken at one-minute intervals. The dose-response curve was plotted using the fluorescence values obtained after achieving stability in the fluorescence signal. The dose-response curves were fitted using the logistic model LOGISTIC5 available in Origin 2021, which could provide a more adequate fit to asymmetric dose-response data[62],[63]. Excitation spectra were scanned from 300 to 540 nm with a step size of 5 nm, and the emission wavelength was set to 560 nm. Emission spectra were scanned from 470 to 700 nm with a step size of 5 nm, and the excitation wavelength was set to 450 nm. The thermal stability of […] was analyzed using the UNcle multifunctional protein stability analysis system. Measurements were performed in 20 mM MOPS buffer with 2 mM DTT at a sample concentration of 1 mg/mL. Absolute fluorescence quantum yields were measured using an absolute photoluminescence quantum yield spectrometer (FS5, Edinburgh). […]
Supplementary Fig. 2 Dose–response curves and fl uorescen ce spectr ums of GEC FINDERs. a and c, Dose– re spons e curves of puri fi ed GECF INDE R-P he1 and 2 with increas ing concen tra tions of phenylalanine (1 nM to 100 μM). The norm alized ΔF/F 0 value increas ed aft er phenylalanine binding (4 60 nm excita tion) . b and d, The fl uore scen ce spect ra of GECF IN DER-P he1 and 2 changed as the phe nylalanine concen tra tion incre ased fro m 1 nM to 100 μM. e and g, Dose–re spon se curv es of puri fied GECF IN DER-Il e1 and 2 with increas ing concen tra tio ns of isoleucine (50 nM to 10 mM). The norm alized ΔF/F 0 value increas ed aft er isoleucine binding (4 80 nm excita tion) . f and h, The fl uore scen ce spect ra of GECF INDE R-Il e1 and 2 change d as the isoleucine concen tration increas ed fro m 0.5 μM to 10 mM. i, Dose–re spon se curv e of puri fi ed GECF INDE R-H is1 with increas ing concen tra tio ns of histid ine (5 nM to 1 mM). The Norm alized ΔF/F 0 increas ed aft er histidine binding (480 nm excita tion). j, The fl uore scen ce spect ra of GECFIN DER-H is1 changed as the histid ine concen tra tion increas ed fro m 5 nM to 1 mM. k, Diffe re nce in fl uore scen ce intensity of GECF INDE R-b enzoic aci d in the pre sence of 10 µM benzoic aci d compare d to the cont ro l (0 µM benzoic aci d). […] (n=3 biological ly independent samples). *p ≤ 0.05, ***p ≤ 0.001, ****p ≤ 0.0001, and n.s. indicat ed no signifi can t diffe re nce (S tude nt’s two-t aile d t-t est). Source data are provi ded as a Source Data file . […]

## N[C@@H](Cc1cnc[nH]1)C(=O)O [His]
His 0.005 μM
  Dose-response, AVE of Repeat 1-3 (Fig. 3 k): -4.366e-17
His 0.01 μM
  Dose-response, AVE of Repeat 1-3 (Fig. 3 k): 0.01906
His 0.05 μM
  Dose-response, AVE of Repeat 1-3 (Fig. 3 k): 0.01899
His 0.5 μM
  Dose-response, AVE of Repeat 1-3 (Fig. 3 k): 0.05174
His 5 μM
  Dose-response, AVE of Repeat 1-3 (Fig. 3 k): 0.1739
His 10 μM
  Dose-response, AVE of Repeat 1-3 (Fig. 3 k): 0.234
His 25 μM
  Dose-response, AVE of Repeat 1-3 (Fig. 3 k): 0.2903
His 50 μM
  Dose-response, AVE of Repeat 1-3 (Fig. 3 k): 0.3383
His 100 μM
  Dose-response, AVE of Repeat 1-3 (Fig. 3 k): 0.377
His 500 μM
  Dose-response, AVE of Repeat 1-3 (Fig. 3 k): 0.4545
His 750 μM
  Dose-response, AVE of Repeat 1-3 (Fig. 3 k): 0.4382
His 1000 μM
  Dose-response, AVE of Repeat 1-3 (Fig. 3 k): 0.4348
Supplementary Fig. 3 h, His 0.75 mM
  fluorescence intensity, AVE of 3 repeats: 10877
